# Laboratory results reported in patent publication US20220289794A1, “SYNTHETIC ANTIMICROBIAL PEPTIDES” (priority 2019, published 2022).
# Columns and labels:
# B. subtilis (ATCC-6633) = test: Broad-spectrum activity against Gram-Positive bacteria (MIC); assay type: cell-based; design: unit not given here
# E. coli (ATCC BAA-2452) = test: Broad-spectrum activity against Gram-Negative bacteria (MIC); assay type: cell-based; conditions: Table 16, Gram-negative panel
# B. cereus (ATCC-13061) = test: Broad-spectrum activity against Gram-Positive bacteria (MIC); assay type: cell-based; design: unit not given here
# [1] = test system: A. baumannii (ATCC BAA-1605); test: Broad-spectrum activity against Gram-Negative bacteria (MIC); assay type: cell-based; conditions: Table 16, Gram-negative panel
# [2] = test system: P. aeruginosa (ATCC 10145); test: as above; assay type: cell-based; conditions: Table 16, Gram-negative panel
# [3] = test system: P. aeruginosa (ATCC BAA-1744); test: as above; assay type: cell-based; conditions: Table 16, Gram-negative panel
# [4] = test system: Methicillin-resistant Staphylococcus aureus MRSA (ATCC BAA-1556); conditions: MRSA ATCC BAA-1556
# S. aureus ATCC 29213 = conditions: S. aureus ATCC 29213
# [5] = test system: Pseudomonas aeruginosa (ATCC 27883); conditions: P. aeruginosa ATCC 27883
# [6] = test system: Escherichia coli (ATCC 25922); conditions: E. coli ATCC 25922
# [7] = test system: Klebsiella pneumoniae (ATCC BAA-1705); conditions: Table 16, Gram-negative panel
# [8] = test system: Enterococcus faecium ATCC 27270; conditions: E. faecium ATCC 27270
# [9] = test system: Enterococcus faecium ATCC 700221; conditions: E. faecium ATCC 700221
# [10] = test system: Klebsiella pneumoniae ATCC 13883; conditions: Table 16, Gram-negative panel
# [11] = test system: Enterococcus faecalis ATCC 29212; conditions: E. faecalis ATCC 29212
# [12] = test system: Enterococcus faecalis ATCC 51575; conditions: E. faecalis ATCC 51575
# [13] = test system: Streptococcus pneumoniae ATCC 49619; conditions: S. pneumoniae ATCC 49619
# [14] = test system: Streptococcus pneumoniae ATCC 51938; conditions: S. pneumoniae ATCC 51938
Substance,Broad-spectrum activity B. subtilis (ATCC-6633) (B. subtilis (ATCC-6633)),MIC E. coli (ATCC BAA-2452) (E. coli (ATCC BAA-2452)),Broad-spectrum activity B. cereus (ATCC-13061) (B. cereus (ATCC-13061)),MIC A. baumannii (ATCC BAA-1605) [1],MIC P. aeruginosa (ATCC 10145) [2],MIC P. aeruginosa (ATCC BAA-1744) [3],MIC MRSA ATCC BAA-1556 [4],MIC S. aureus ATCC 29213 (S. aureus ATCC 29213),MIC P. aeruginosa ATCC 27883 [5],MIC E. coli ATCC 25922 [6],MIC K. pneumonia (ATCC BAA-1705) [7],Broad-spectrum activity E. faecium (ATCC 27270) [8],Broad-spectrum activity E. faecium (ATCC 700221) [9],MIC K. pneumonia (ATCC 13883) [10],Broad-spectrum activity E. faecalis (ATCC 29212) [11],Broad-spectrum activity E. faecalis (ATCC 51575) [12],Broad-spectrum activity S. pneumoniae (ATCC 49619) [13],Broad-spectrum activity S. pneumoniae (ATCC 51938) [14]
c[arg-arg-Arg-Arg-NaI-trp-NaI] [IFX-140],1.5,25 µg/mL,3.1,12.5 µg/mL,25 µg/mL,25 µg/mL,3.1 µg/mL,3.1 µg/mL,32 µg/mL,32 µg/mL,> 50 µg/mL,3.1,6.2,50 µg/mL,6.2,6.2,25,12.5
c[Arg-Arg-Arg-Arg-Dip-Dip-dip] [IFX-060],1.5,12.5 µg/mL,3.1,6.2 µg/mL,25 µg/mL,12.5 µg/mL,1.5 µg/mL,1.5 µg/mL,12.5 µg/mL,6.2 µg/mL,12.5 µg/mL,3.1,1.5,50 µg/mL,3.1,12.5,25,12.5
c[Arg-Arg-Arg-Arg-Dip-Trp-dip] [IFX-088],1.5,12.5 µg/mL,6.2,12.5 µg/mL,25 µg/mL,50 µg/mL,3.1 µg/mL,3.1 µg/mL,12.5 µg/mL,12.5 µg/mL,25 µg/mL,3.1,12.5,50 µg/mL,12.5,12.5,25,12.5
c[Arg-Arg-arg-Arg-Dip-Trp-Dip] [IFX-092],1.5,12.5 µg/mL,6.2,12.5 µg/mL,25 µg/mL,25 µg/mL,3.1 µg/mL,3.1 µg/mL,12.5 µg/mL,25 µg/mL,25 µg/mL,6.2,12.5,50 µg/mL,12.5,12.5,50,25
c[Arg-Arg-arg-arg-naI-trp-naI] [IFX-137],1.5,25 µg/mL,3.1,12.5 µg/mL,25 µg/mL,25 µg/mL,3.1 µg/mL,3.1 µg/mL,32 µg/mL,16 µg/mL,50 µg/mL,3.1,3.1,50 µg/mL,6.2,6.2,25,12.5
